Experimental data: patent publication US20240158370A1, “CK1 alpha AND DUAL CK1 alpha / GSPT1 DEGRADING COMPOUNDS” (Innovo Therapeutics, Inc., priority 2022, published 2024)

Legend:
Format in all cases: cell-based
[1] = target: T1, CK1α (Homo sapiens, UniProt P48729+Q96SW2); experiment: HiBiT degradation assay, CK1α, Procedure A; conditions: six hours
T1 construct: CSNK1A1-HiBit KI HEK293(LgBit) Cells; host or cells: HEK293(LgBit) knock-in cells
Summary of the method: (§1)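 Luminescence from HiBiT lytic detection reports remaining tagged protein after cells sit six hours at 37° C with compound across ten concentrations (10 μM down to 0.005 μM, 0.1% DMSO). A 4-parameter curve fit gives DC50 and Ymin.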

[2] = system: Z-138 cells; experiment: Z-138 Proliferation Assay (Cell Titer-Glo); conditions: 72 hours; for Ymin (%): % remaining (percent of DMSO control); for EC50: Homo sapiens, Cell Titer-Glo, 4-parameter curve fit
Summary of the method: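 Z-138 cells (4,000 cells/well, IMDM + 10% FBS) exposed 72 h to 10-point 1:2 compound dilutions from 10,000 nM top, 0.1% DMSO. Viability read by CellTiter-Glo luminescence; EC50 from 4-parameter fit of percent of DMSO control.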

[3] = target: T2, GSPT1 (Homo sapiens, UniProt P15170+Q96SW2); experiment: HiBiT degradation assay, GSPT1, Procedure A; parameters: HiBit-GSPT1 KI HEK293(LgBit) Cells; host or cells: HEK293(LgBit) knock-in cells; conditions: six hours
T2 sequence (P15170 whole entry): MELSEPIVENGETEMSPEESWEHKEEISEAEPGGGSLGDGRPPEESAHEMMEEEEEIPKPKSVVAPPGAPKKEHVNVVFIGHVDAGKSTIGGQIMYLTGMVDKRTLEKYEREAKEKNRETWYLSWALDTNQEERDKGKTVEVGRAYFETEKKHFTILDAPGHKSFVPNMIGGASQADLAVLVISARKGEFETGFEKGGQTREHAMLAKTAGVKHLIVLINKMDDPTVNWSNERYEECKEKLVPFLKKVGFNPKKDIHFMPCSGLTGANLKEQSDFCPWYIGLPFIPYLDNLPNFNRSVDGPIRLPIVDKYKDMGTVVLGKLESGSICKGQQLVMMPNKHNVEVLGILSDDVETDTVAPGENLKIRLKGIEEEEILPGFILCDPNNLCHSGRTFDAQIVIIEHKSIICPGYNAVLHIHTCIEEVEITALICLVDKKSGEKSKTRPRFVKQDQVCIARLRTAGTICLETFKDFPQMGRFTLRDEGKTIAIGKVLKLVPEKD
T2 sequence (Q96SW2 whole entry): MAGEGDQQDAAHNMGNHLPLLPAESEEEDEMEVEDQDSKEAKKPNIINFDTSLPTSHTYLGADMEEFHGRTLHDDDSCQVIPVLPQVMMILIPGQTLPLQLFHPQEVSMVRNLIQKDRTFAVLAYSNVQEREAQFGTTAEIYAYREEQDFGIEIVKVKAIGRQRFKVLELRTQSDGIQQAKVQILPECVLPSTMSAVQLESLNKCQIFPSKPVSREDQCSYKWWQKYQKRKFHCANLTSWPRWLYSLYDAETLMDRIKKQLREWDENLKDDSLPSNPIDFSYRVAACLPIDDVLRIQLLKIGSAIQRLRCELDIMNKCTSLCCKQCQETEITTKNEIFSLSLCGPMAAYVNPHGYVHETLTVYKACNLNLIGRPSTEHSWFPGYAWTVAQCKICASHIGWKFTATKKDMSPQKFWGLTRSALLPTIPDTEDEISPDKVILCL
T2 sequence (Q16531 whole entry partner): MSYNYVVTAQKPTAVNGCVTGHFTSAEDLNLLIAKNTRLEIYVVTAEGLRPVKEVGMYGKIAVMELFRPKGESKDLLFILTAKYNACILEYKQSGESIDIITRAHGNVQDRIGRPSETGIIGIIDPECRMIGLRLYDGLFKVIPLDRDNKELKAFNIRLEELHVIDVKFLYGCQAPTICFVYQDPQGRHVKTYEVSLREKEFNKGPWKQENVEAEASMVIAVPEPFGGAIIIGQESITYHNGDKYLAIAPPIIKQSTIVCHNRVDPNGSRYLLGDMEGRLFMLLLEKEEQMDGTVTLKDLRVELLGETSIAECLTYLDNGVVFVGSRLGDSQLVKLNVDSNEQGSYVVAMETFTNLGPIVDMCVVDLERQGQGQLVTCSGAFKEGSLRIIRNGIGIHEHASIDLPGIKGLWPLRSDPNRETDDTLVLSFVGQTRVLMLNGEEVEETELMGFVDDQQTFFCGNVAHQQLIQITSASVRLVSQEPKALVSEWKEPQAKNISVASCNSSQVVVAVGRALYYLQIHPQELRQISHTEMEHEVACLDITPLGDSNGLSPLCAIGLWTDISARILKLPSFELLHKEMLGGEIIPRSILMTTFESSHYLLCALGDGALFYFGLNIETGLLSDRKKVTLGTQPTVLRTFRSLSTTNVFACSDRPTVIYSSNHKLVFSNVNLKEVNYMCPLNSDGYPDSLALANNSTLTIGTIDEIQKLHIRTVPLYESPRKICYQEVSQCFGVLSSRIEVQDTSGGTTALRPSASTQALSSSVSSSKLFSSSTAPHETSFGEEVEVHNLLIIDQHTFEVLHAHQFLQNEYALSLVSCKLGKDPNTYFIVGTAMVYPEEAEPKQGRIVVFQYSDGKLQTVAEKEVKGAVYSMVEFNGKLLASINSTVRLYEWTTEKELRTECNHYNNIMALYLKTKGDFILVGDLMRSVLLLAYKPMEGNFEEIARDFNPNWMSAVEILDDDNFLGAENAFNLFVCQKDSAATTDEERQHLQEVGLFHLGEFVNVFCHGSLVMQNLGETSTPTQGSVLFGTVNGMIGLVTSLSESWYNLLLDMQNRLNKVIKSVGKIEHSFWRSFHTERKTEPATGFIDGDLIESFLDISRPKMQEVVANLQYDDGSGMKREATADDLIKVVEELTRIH
Summary of the method: as §1

[4] = target: T2, GSPT1; experiment: HiBiT degradation assay, GSPT1, Procedure B (Molt 4_hGSPT1_HiBIT cells); parameters: Molt 4_hGSPT1_HiBIT N-terminus tagged cells were generated using CRISPR technology; endogenous in cells; host or cells: Molt 4 cells, CRISPR-edited; conditions: six hours
Summary of the method: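 CRISPR N-terminal HiBiT-tagged Molt 4 cells at 1×10^6 cells/ml were treated 6 h at 37° C with compounds (10-point, 10 μM to 0.005 μM, 0.1% DMSO). Remaining HiBiT-GSPT1 was read by lytic luminescence; DC50 and Ymin (% remaining) from a 4-parameter fit.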

T1 sequence (P48729 whole entry): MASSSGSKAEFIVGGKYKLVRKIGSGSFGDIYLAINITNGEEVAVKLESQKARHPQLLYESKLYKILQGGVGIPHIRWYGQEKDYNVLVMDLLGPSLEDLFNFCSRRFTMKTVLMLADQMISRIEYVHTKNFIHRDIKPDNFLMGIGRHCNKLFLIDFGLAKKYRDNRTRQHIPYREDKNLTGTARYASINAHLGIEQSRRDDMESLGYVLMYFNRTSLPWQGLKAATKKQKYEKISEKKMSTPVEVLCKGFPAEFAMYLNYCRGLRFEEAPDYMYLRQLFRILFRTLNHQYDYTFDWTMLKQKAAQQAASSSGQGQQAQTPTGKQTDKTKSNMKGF
T1 sequence (Q96SW2 whole entry): as the sequence (Q96SW2 whole entry) above
T1 sequence (Q16531 whole entry partner): as the sequence (Q16531 whole entry partner) above

CK1α Ymin [1] | DC50 [1] [nM] | DC50 [3] [nM] | GSPT1 Ymin [3] | DC50 [4] [nM] | GSPT1 Ymin [4] | Structure (SMILES) | Ymin (%) [2] | EC50 [2] [nM]
E (E = >25-75% remaining) | < 25 | ≥ 25 | F (F = >75-100% remaining) | – | – | Cn1nc(-c2ccc3c(c2)CN(C2CCC(=O)NC2=O)C3=O)nc1-c1ccc(C(F)(F)F)cc1 (stereo not drawn) [Example 619, 3-(5-(1-methyl-5-(4-(trifluoromethyl)phenyl)-1H-1,2,4-triazol-3-yl)-1-oxoisoindolin-2-yl)piperidine-2,6-dione] | F (>25-50% remaining) | 10 to 100
C (C = 0-10% remaining) | < 25 | – | – | ≥ 25 | F (F = >75-100% remaining) | O=C1CCC(N2Cc3cc(-c4cc(-c5ccccc5)n(C5CC5)n4)ccc3C2=O)C(=O)N1 (stereo not drawn) [Example 621, 3-(5-(1-cyclopropyl-5-phenyl-1H-pyrazol-3-yl)-1-oxoisoindolin-2-yl)piperidine-2,6-dione] | D (0-10% remaining) | < 10
D (D = >10- 25% remaining) | < 25 | – | – | ≥ 25 | E (E = >25-75% remaining) | Cn1nc(-c2ccc3c(c2)CN(C2CCC(=O)NC2=O)C3=O)nc1-c1ccc(Cl)cc1 (stereo not drawn) [Example 622, 3-(5-(5-(4-chlorophenyl)-1-methyl-1H-1,2,4-triazol-3-yl)-1-oxoisoindolin-2-yl)piperidine-2,6-dione] | E (>10-25% remaining) | 10 to 100
E (E = >25-75% remaining) | ≥ 25 | – | – | ≥ 25 | F (F = >75-100% remaining) | Cn1ncc(-c2ccc3c(c2)CN(C2CCC(=O)NC2=O)C3=O)c1C1CCCC1 (stereo not drawn) [Example 692] | E (>10-25% remaining) | 100 to 500
D (D = >10- 25% remaining) | < 25 | ≥ 25 | F (F = >75-100% remaining) | – | – | O=C1CCC(N2Cc3cc(-c4nc(-c5ccccc5)n(C(F)F)n4)ccc3C2=O)C(=O)N1 (stereo not drawn) [Example 703, 3-(5-(1-(difluoromethyl)-5-phenyl-1H-1,2,4-triazol-3-yl)-1-oxoisoindolin-2-yl) piperidine-2,6-dione] | E (>10-25% remaining) | 10 to 100
C (C = 0-10% remaining) | < 25 | < 25 | F (F = >75-100% remaining) | – | – | O=C1CCC(N2Cc3cc(-c4nc(-c5ccccc5)n(C5CC5)n4)ccc3C2=O)C(=O)N1 (stereo not drawn) [Example 705, 3-(5-(1-cyclopropyl-5-phenyl-1H-1,2,4-triazol-3-yl)-1-oxoisoindolin-2-yl)piperidine-2,6-dione] | E (>10-25% remaining) | 10 to 100
C (C = 0-10% remaining) | < 25 | – | – | < 25 | F (F = >75-100% remaining) | O=C1CCC(N2Cc3cc(-c4cc(-c5ccccc5)n(CC(F)(F)F)n4)ccc3C2=O)C(=O)N1 (stereo not drawn) [Example 710, 3-(1-oxo-5-(5-phenyl-1-(2,2,2-trifluoroethyl)-1H-pyrazol-3-yl)isoindolin-2-yl)piperidine-2,6-dione] | E (>10-25% remaining) | < 10
D (D = >10- 25% remaining) | < 25 | – | – | ≥ 25 | F (F = >75-100% remaining) | Cn1nc(-c2ccc3c(c2)CN(C2CCC(=O)NC2=O)C3=O)cc1-c1ccc(Cl)cc1 (stereo not drawn) [Example 717, 3-(5-(5-(4-chlorophenyl)-1-methyl-1H-pyrazol-3-yl)-1-oxoisoindolin-2-yl)piperidine-2,6-dione] | E (>10-25% remaining) | 10 to 100
C (C = 0-10% remaining) | < 25 | – | – | ≥ 25 | F (F = >75-100% remaining) | CC(C)c1nc(-c2ccc3c(c2)CN(C2CCC(=O)NC2=O)C3=O)c(-c2ccccc2)n1C (stereo not drawn) [Example 726, 3-(5-(2-isopropyl-1-methyl-5-phenyl-1H-imidazol-4-yl)-1-oxoisoindolin-2-yl)piperidine-2,6-dione] | D (0-10% remaining) | < 10
C (C = 0-10% remaining) | < 25 | – | – | ≥ 25 | F (F = >75-100% remaining) | CC(C)c1nc(-c2ccc3c(c2)CN(C2CCC(=O)NC2=O)C3=O)cn1-c1ccccc1 (stereo not drawn) [Example 728, 3-(5-(2-isopropyl-1-phenyl-1H-imidazol-4-yl)-1-oxoisoindolin-2-yl)piperidine-2,6-dione] | E (>10-25% remaining) | < 10
C (C = 0-10% remaining) | < 25 | – | – | < 25 | E (E = >25-75% remaining) | Cc1cn(-c2ccccc2)c(-c2ccc3c(c2)CN(C2CCC(=O)NC2=O)C3=O)n1 (stereo not drawn) [Example 729, 3-(5-(4-methyl-1-phenyl-1H-imidazol-2-yl)-1-oxoisoindolin-2-yl)piperidine-2,6-dione] | D (0-10% remaining) | < 10
C (C = 0-10% remaining) | < 25 | – | – | < 25 | E (E = >25-75% remaining) | CCc1cn(-c2ccccc2)c(-c2ccc3c(c2)CN(C2CCC(=O)NC2=O)C3=O)n1 (stereo not drawn) [Example 730, 3-(5-(4-ethyl-1-phenyl-1H-imidazol-2-yl)-1-oxoisoindolin-2-yl)piperidine-2,6-dione] | D (0-10% remaining) | < 10
C (C = 0-10% remaining) | < 25 | – | – | < 25 | E (E = >25-75% remaining) | CC(C)c1cn(-c2ccccc2)c(-c2ccc3c(c2)CN(C2CCC(=O)NC2=O)C3=O)n1 (stereo not drawn) [Example 731, 3-(5-(4-isopropyl-1-phenyl-1H-imidazol-2-yl)-1-oxoisoindolin-2-yl)piperidine-2,6-dione] | D (0-10% remaining) | < 10
C (C = 0-10% remaining) | < 25 | – | – | < 25 | F (F = >75-100% remaining) | CC(C)Cc1nc(-c2ccc3c(c2)CN(C2CCC(=O)NC2=O)C3=O)c(-c2ccccc2)o1 (stereo not drawn) [Example 732, 3-(5-(2-isobutyl-5-phenyloxazol-4-yl)-1-oxoisoindolin-2-yl)piperidine-2,6-dione] | D (0-10% remaining) | < 10
C (C = 0-10% remaining) | < 25 | – | – | ≥ 25 | F (F = >75-100% remaining) | CC(C)c1nc(-c2ccc3c(c2)CN(C2CCC(=O)NC2=O)C3=O)c(-c2ccccc2)o1 (stereo not drawn) [Example 733, 3-(5-(2-isopropyl-5-phenyloxazol-4-yl)-1-oxoisoindolin-2-yl)piperidine-2,6-dione] | D (0-10% remaining) | < 10
